Measurements taken from PubChem BioAssay AID264 (DTP/NCI, 2004).
Values joined by “and” are separate entries in the source; they are usually repeats but may differ in a detail not shown here. Equal values may be shown once. Records with an inconclusive call do not appear.

System: nude mice, LX-1 lung xenograft intrarenal, tumor weight T/C
Experiment: NCI In Vivo Anticancer Drug Screen. Data for tumor model Human Lung LX-1 Xenograft (intrarenal inoculation) in NU/NU Swiss (nude) mice
Settings: endpoint: mean tumor weight change, higher = larger tumour
Outline: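 Readout: T/C, i.e. treated-group tumor measurement over vehicle-control measurement. Mice bearing transplantable tumors were dosed with compound or vehicle.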

[1] = dose: 300.0 mg/kg/injection, schedule: Q04DX003 (sc), vehicle: saline with Tween-80
[2] = dose: 600.0 mg/kg/injection, schedule: Q04DX003 (sc), vehicle: saline with Tween-80
[3] = dose: 1200.0 mg/kg/injection, schedule: Q04DX003 (sc), vehicle: saline with Tween-80
[4] = dose: 12.5 mg/kg/injection, schedule: Q01DX010 (sc), vehicle: Klucel (hydroxypropylcellulose) (HPC)
[5] = dose: 25.0 mg/kg/injection, schedule: Q01DX010 (sc), vehicle: Klucel (hydroxypropylcellulose) (HPC)
[6] = dose: 100.0 mg/kg/injection, schedule: Q01DX010 (sc), vehicle: Klucel (hydroxypropylcellulose) (HPC)
[7] = dose: 150.0 mg/kg/injection, schedule: Q04DX003 (sc), vehicle: saline with Tween-80
[8] = dose: 300.0 mg/kg/injection, schedule: Q04DX003 (sc), vehicle: Klucel (hydroxypropylcellulose) (HPC)
[9] = dose: 600.0 mg/kg/injection, schedule: Q04DX003 (sc), vehicle: Klucel (hydroxypropylcellulose) (HPC)
[10] = dose: 50.0 mg/kg/injection, schedule: Q01DX010 (sc), vehicle: saline with Tween-80
[11] = dose: 100.0 mg/kg/injection, schedule: Q01DX010 (sc), vehicle: saline with Tween-80
[12] = dose: 100.0 mg/kg/injection, schedule: Q04DX003 (sc), vehicle: suspension in saline
[13] = dose: 200.0 mg/kg/injection, schedule: Q04DX003 (sc), vehicle: suspension in saline
[14] = dose: 400.0 mg/kg/injection, schedule: Q04DX003 (sc), vehicle: suspension in saline
[15] = dose: 12.5 mg/kg/injection, schedule: Q01DX010 (sc), vehicle: saline
[16] = dose: 200.0 mg/kg/injection, schedule: Q01DX010 (sc), vehicle: saline with Tween-80
[17] = dose: 400.0 mg/kg/injection, schedule: Q01DX010 (sc), vehicle: saline with Tween-80

For `NC(=O)c1[nH]nc(C2OC(CO)C(O)C2O)c1O` (stereo not drawn), the T/C (dose: 0.62 mg/kg/injection, schedule: Q04DX003 (sc), vehicle: saline) was 77 % of control, the T/C (dose: 1.25 mg/kg/injection, schedule: Q04DX003 (sc), vehicle: saline) was 65 % of control and the T/C (dose: 2.5 mg/kg/injection, schedule: Q04DX003 (sc), vehicle: saline) was 109 % of control. For the same molecule, the T/C (dose: 5.0 mg/kg/injection, schedule: Q04DX003 (sc), vehicle: saline) was 78 % of control.

In the case of `O=C(O)CCCc1ccc(N(CCCl)CCCl)cc1`, the T/C (dose: 16.0 mg/kg/injection, schedule: Q01DX010 (sc), vehicle: saline with Tween-80) is reported as 30 % of control.

In the case of `Cc1c(N)nc(C(CC(N)=O)NCC(N)C(N)=O)nc1C(=O)NC(C(=O)NC(C)C(O)CC(=O)NC(C(=O)NC(OC1OC(C)C(N)C(O)C1O)C(O)c1nc(-c2nc(C(=O)NCCCC(N)CC(=O)NCCCNCCCCN)cs2)cs1)C(C)O)C(OC1OC(CO)C(O)C(O)C1OC1OC(CO)C(O)C(OC(N)=O)C1O)c1cnc[nH]1` (stereo not drawn), the T/C (dose: 16.0 mg/kg/injection, schedule: Q04DX003 (sc), vehicle: saline) is reported as 73 % of control.

With `CN(C)CCOc1ccc2c(c1)C/C(=C/c1ncc([N+](=O)[O-])n1C)C2=O` the T/C [1] was 93 % of control, the T/C [2] was 82 % of control and the T/C [3] was 44 % of control. The T/C (dose: 2400.0 mg/kg/injection, schedule: Q04DX003 (sc), vehicle: saline with Tween-80) was 61 % of control.

In the case of `CS(=O)(=O)OCCN(CCOS(C)(=O)=O)c1ccc(C=Nc2ccc(-c3csc(COc4ccccc4)n3)cc2)cc1`, the T/C [4] is reported as 52 % of control, the T/C [5] is reported as 70 % of control and the T/C [6] is reported as 106 % of control.

With `O=[n+]1c2ccccc2n([O-])c2ccccc21.[Cl][Ni][Cl]` the T/C (dose: 18.75 mg/kg/injection, schedule: Q04DX003 (sc), vehicle: saline with Tween-80) was 122 % of control, the T/C (dose: 75.0 mg/kg/injection, schedule: Q04DX003 (sc), vehicle: saline with Tween-80) was 150 % of control and 163 % of control and the T/C [7] was 226 % of control.

In the case of `C=CCNc1ccc(C)cc1`, the T/C [4] is reported as 98 % of control, the T/C [5] is reported as 171 % of control and the T/C [6] is reported as 107 % of control. For the same molecule, the T/C (dose: 200.0 mg/kg/injection, schedule: Q01DX010 (sc), vehicle: Klucel (hydroxypropylcellulose) (HPC)) was 42 % of control and the T/C (dose: 400.0 mg/kg/injection, schedule: Q01DX010 (sc), vehicle: Klucel (hydroxypropylcellulose) (HPC)) was 72 % of control.

In the case of `Cc1ccc2c(c1)C(=O)N(CC[P+](c1ccccc1)(c1ccccc1)c1ccccc1)C2=O`, the T/C [5] is reported as 51 % of control and the T/C (dose: 50.0 mg/kg/injection, schedule: Q01DX010 (sc), vehicle: Klucel (hydroxypropylcellulose) (HPC)) is reported as 37 % of control.

With `Cc1oc2c(C)c3oc(=O)cc(C)c3cc2c1CCl` the T/C [7] was 82 % of control, the T/C [1] was 95 % of control and the T/C [2] was 60 % of control. For the same molecule, the T/C [3] was 76 % of control.

With `NC(=O)/C=C/c1c[nH]c2nccnc12` the T/C (dose: 50.0 mg/kg/injection, schedule: Q04DX003 (sc), vehicle: water) was 86 % of control.

For `O=C(CC(=O)C(F)(F)F)c1csc2ccccc12`, the T/C (dose: 75.0 mg/kg/injection, schedule: Q04DX003 (sc), vehicle: Klucel (hydroxypropylcellulose) (HPC)) was 81 % of control, the T/C (dose: 150.0 mg/kg/injection, schedule: Q04DX003 (sc), vehicle: Klucel (hydroxypropylcellulose) (HPC)) was 70 % of control and the T/C [8] was 93 % of control. For the same molecule, the T/C [9] was 87 % of control.

In the case of `CC/C(=C(/CC)c1ccc(O)cc1)c1ccc(O)cc1`, the T/C [10] is reported as 106 % of control and the T/C [11] is reported as 105 % of control.

In the case of `OCC1OC(n2cnc3cncnc32)C(O)C1O` (stereo not drawn), the T/C (dose: 12.5 mg/kg/injection, schedule: Q04DX003 (sc), vehicle: saline) is reported as 89 % of control, the T/C (dose: 25.0 mg/kg/injection, schedule: Q04DX003 (sc), vehicle: saline) is reported as 118 % of control and the T/C (dose: 50.0 mg/kg/injection, schedule: Q04DX003 (sc), vehicle: saline) is reported as 69 % of control.

With `Cn1cnc([N+](=O)[O-])c1Sc1ncn[nH]1` the T/C [12] was 96 % of control, the T/C [13] was 96 % of control and the T/C [14] was 32 % of control.

For `COc1cccc2c1C(=O)c1c(O)c3c(c(O)c1C2=O)C[C@H](O)C[C@@H]3OC1CC(N)C(O)C(C)O1` (stereo partly drawn), the T/C (dose: 6.25 mg/kg/injection, schedule: Q01DX010 (sc), vehicle: saline) was 25 % of control, the T/C [15] was 336 % of control and the T/C (dose: 25.0 mg/kg/injection, schedule: Q01DX010 (sc), vehicle: saline) was 101 % of control.

With `COc1cc(C(=O)c2cocc2C(=O)c2ccc3c(c2)OCO3)cc(OC)c1OC` the T/C [8] was 160 % of control, the T/C [9] was 80 % of control and the T/C (dose: 1200.0 mg/kg/injection, schedule: Q04DX003 (sc), vehicle: Klucel (hydroxypropylcellulose) (HPC)) was 94 % of control.

In the case of `NC(=O)c1ncn(C2OC(CO)C(O)C2O)n1` (stereo not drawn), the T/C (dose: 300.0 mg/kg/injection, schedule: Q04DX003 (sc), vehicle: saline) is reported as 85 % of control, the T/C (dose: 600.0 mg/kg/injection, schedule: Q04DX003 (sc), vehicle: saline) is reported as 95 % of control and the T/C (dose: 1200.0 mg/kg/injection, schedule: Q04DX003 (sc), vehicle: saline) is reported as 42 % of control.

For `CCCCCC(O)C1C(=O)OC(C)C(O)/C=C/C=C/C=C/C=C\C=C(\C)C(O)CC(O)CC(O)CC(O)CC(O)CC(O)CC1O` (stereo not drawn), the T/C (dose: 150.0 mg/kg/injection, schedule: Q04DX003 (sc), vehicle: distilled water + alcohol) was 107 % of control, the T/C (dose: 300.0 mg/kg/injection, schedule: Q04DX003 (sc), vehicle: distilled water + alcohol) was 117 % of control and the T/C (dose: 600.0 mg/kg/injection, schedule: Q04DX003 (sc), vehicle: distilled water + alcohol) was 98 % of control. The T/C (dose: 1200.0 mg/kg/injection, schedule: Q04DX003 (sc), vehicle: distilled water + alcohol) was 105 % of control.

For `Cc1cc2nc3c(=O)[nH]c(=O)nc-3n(CC(O)C(O)C(O)C(O)CO)c2cc1C` (stereo not drawn), the T/C [11] was 75 % of control, the T/C [16] was 92 % of control and the T/C [17] was 66 % of control.

For `CCCCC(=O)OCC(=O)[C@]1(O)Cc2c(O)c3c(c(O)c2[C@@H](OC2CC(NC(=O)C(F)(F)F)C(O)C(C)O2)C1)C(=O)c1c(OC)cccc1C3=O` (stereo partly drawn), the T/C (dose: 32.0 mg/kg/injection, schedule: Q01DX010 (sc), vehicle: distilled water + Tween-80) was 84 % of control and the T/C (dose: 512.0 mg/kg/injection, schedule: Q01DX010 (sc), vehicle: distilled water + Tween-80) was 5 % of control and 8 % of control and 26 % of control.

With `C1=CCOCOC1` the T/C [10] was 83 % of control, the T/C [11] was 105 % of control and the T/C [16] was 81 % of control. For the same molecule, the T/C [17] was 46 % of control.

For `O=C(O)C(CSC(c1ccccc1)(c1ccccc1)c1ccccc1)N=Cc1cccs1` (stereo not drawn), the T/C [12] was 86 % of control, the T/C [13] was 108 % of control and the T/C [14] was 55 % of control.

For `CCCNC1=C(C)C(=O)C2=C(C1=O)[C@H](COC(N)=O)[C@]1(OC)[C@@H]3N[C@@H]3CN21`, the T/C (dose: 3.0 mg/kg/injection, schedule: Q04DX003 (sc), vehicle: suspension in saline) was 32 % of control and the T/C (dose: 24.0 mg/kg/injection, schedule: Q04DX003 (sc), vehicle: suspension in saline) was 5 % of control and 17 % of control and 28 % of control.

In the case of `Nc1nc(F)nc2c1ncn2C1OC(COP(=O)(O)O)C(O)C1O` (stereo not drawn), the T/C (dose: 50.0 mg/kg/injection, schedule: Q01DX010 (sc), vehicle: saline) is reported as 55 % of control, the T/C (dose: 50.0 mg/kg/injection, schedule: Q01DX010 (sc), vehicle: suspension in saline) is reported as 53 % of control and 70 % of control and the T/C (dose: 100.0 mg/kg/injection, schedule: Q01DX010 (sc), vehicle: saline) is reported as 20 % of control and 30 % of control. For the same molecule, the T/C (dose: 100.0 mg/kg/injection, schedule: Q01DX010 (sc), vehicle: suspension in saline) was 56 % of control and 59 % of control, the T/C (dose: 200.0 mg/kg/injection, schedule: Q01DX010 (sc), vehicle: suspension in saline) was 6 % of control and 18 % of control and the T/C (dose: 400.0 mg/kg/injection, schedule: Q01DX010 (sc), vehicle: saline) was -72 % of control. For the same molecule, the T/C (dose: 400.0 mg/kg/injection, schedule: Q01DX010 (sc), vehicle: suspension in saline) was -62 % of control.

`N=[N+]=CC(=O)OCC(N)C(=O)O` (stereo not drawn) was tested, and the T/C [15] was 101 % of control.

For `COC1=C(C)C(=O)C2=C(C1=O)C1C3CC4=C(C(=O)C(OC)=C(C)C4=O)C(CNC(=O)C(C)=O)N3C(C#N)C(C2)N1C` (stereo not drawn), the T/C (dose: 1.0 mg/kg/injection, schedule: Q04DX003 (sc), vehicle: Klucel (hydroxypropylcellulose) (HPC)) was 111 % of control, the T/C (dose: 2.0 mg/kg/injection, schedule: Q04DX003 (sc), vehicle: Klucel (hydroxypropylcellulose) (HPC)) was 105 % of control and the T/C (dose: 4.0 mg/kg/injection, schedule: Q04DX003 (sc), vehicle: Klucel (hydroxypropylcellulose) (HPC)) was 59 % of control.
